Measurements: PubChem BioAssay (NCI)
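How tested: cells in 96-well plates exposed to compound for 48 hours at five concentrations. GI50 is the concentration that inhibits growth by half. TGI marks complete inhibition of growth.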

Key:
Experiment in all cases: DTP human tumour cell line panel, 48 h
SK-MEL-28 melanoma = test system: SK-MEL-28 melanoma
M14 melanoma = test system: M14 melanoma
MDA-MB-231 breast = test system: MDA-MB-231 breast
COLO 205 colon = test system: COLO 205 colon
UO-31 renal = test system: UO-31 renal
NCI-H23 lung = test system: NCI-H23 lung
DU-145 prostate = test system: DU-145 prostate
SF-539 CNS = test system: SF-539 CNS
SF-268 CNS = test system: SF-268 CNS
HS 578T breast = test system: HS 578T breast

SMILES	TGI (SK-MEL-28 melanoma) [µM]	TGI (M14 melanoma) [µM]	TGI (MDA-MB-231 breast) [µM]	TGI (COLO 205 colon) [µM]	TGI (UO-31 renal) [µM]	TGI (NCI-H23 lung) [µM]	TGI (DU-145 prostate) [µM]	TGI (SF-539 CNS) [µM]	TGI (SF-268 CNS) [µM]	TGI (HS 578T breast) [µM]	GI50 (SK-MEL-28 melanoma) [µM]	GI50 (M14 melanoma) [µM]	GI50 (MDA-MB-231 breast) [µM]	GI50 (COLO 205 colon) [µM]	GI50 (UO-31 renal) [µM]	GI50 (NCI-H23 lung) [µM]	GI50 (DU-145 prostate) [µM]	GI50 (SF-539 CNS) [µM]	GI50 (SF-268 CNS) [µM]	GI50 (HS 578T breast) [µM]
Oc1[nH]c2ccccc2c1N=Nc1ccccc1Cl	> 100	> 100	41.6	> 100	> 100	> 100	> 100	> 100	> 100	> 100										
CNCCCn1cc(C2=C(c3cn(C)c4ccccc34)C(=O)NC2=O)c2ccccc21	7.8	7.98	15.1	5.52	11.8	13.2	16.1	7.06	12	9.64	3.85	4.17	5.32	1.95	3.58	5.21	5.35	3.59	5.24	2.06
Clc1coc2nc3ccccc3c(Nc3ccc4c(c3)OCO4)c12	> 71.4	13.8	81.3	30	> 100	22	17.2	7.42	54	5.37	3.49	0.699	0.974	2.05	6.5	0.983	2.58	2.46	5.6	1.89
COc1ccc2c(c1)C(C)Cc1c(Cl)ncnc1N2C (stereo not given)	46.1	7.99	2.35	0.777	42	11.5	> 74.1	18.8	22.9	38.1	0.368	0.345	0.365	0.261	0.364	0.449	3.41	0.471	0.359	0.533
O=C1NC(=Nc2ccccc2)S/C1=C\c1ccc2ncccc2c1	> 25	> 25	> 25	> 25	> 25	> 25	> 25	> 25	> 25	> 25	> 25	> 25	> 25	> 25	> 25	5.89	> 25	> 6.25	> 10.3	> 11.8
COC(=O)/C=C/c1cc(O)c2oc(-c3ccc(O)c(O)c3)c(C(=O)OC)c2c1	11.1	9.39	15.8	23.6	10.6	7.81	12	1.96	12.5	9.18	1.92	0.0698	0.927	8.27	1.11	0.43	0.369	0.159	1.52	0.405
O=C(CCCn1ccnc1[N+](=O)[O-])NCCn1cncc1[N+](=O)[O-]	> 100	> 100	> 100	> 100	> 100	> 100	> 100	> 100	> 100	> 100										
Cc1nnc(S(=O)(=O)c2ccc(N=Nc3c(N)nc(N)nc3N)cc2)s1	> 100	> 100	> 100	> 100	> 100	> 100	> 100	> 100	> 100	> 100										
COc1cc(C(=O)c2cc(C)c3[nH]c4ccc(Cl)cc4c3c2C)cc(OC)c1OC	17	12.4	2.32	2.36	11.5	7.43	3.6	0.461	16.2	10.6	1.44	0.033	0.0496	0.517	0.12	0.0444	0.0459	0.0284	0.182	0.0364
C/C1=C\CC[C@@]2(C)O[C@@H]2[C@H]2OC(=O)[C@@H](CN(C)C)[C@@H]2CC1	51.6	35.2	34.6	98.4	5.95	40	28.1	5.62	> 100	> 100	21.9	16.3	14.2	33.8	2.31	19.2	4.75	2.45	38.7	22.7
COc1ccc(N2C(=O)C(c3ccccc3)(c3ccccc3)C23C(=O)N(C)c2ccccc23)cc1 (stereo not given)	> 100	> 100	> 100	> 100	> 100	> 100	> 100	> 100	> 100	> 100	> 100	> 100	54	> 100	> 100	> 100	> 100	> 100	> 100	> 100
Cc1ccc(C(SCC(N)C(=O)O)(c2ccccc2)c2ccc(C)cc2)cc1 (stereo not given)	23.7	0.147	16.1	0.732	> 55	23.7	2.66	2.47	23.9	2.17	2.09	0.0316	0.468	0.241	7.96	0.423	0.287	0.129	0.257	0.0485
COc1ncnc(C2CC2)c1-c1ncc2cnn(Cc3ccc(-c4nc(C(F)(F)F)cn4C(C)C)cc3)c2n1	71.3	> 100	> 100	89.4	36.7	78	> 100	39	80.9	> 100	19.1	28.1	22.9	23.5	3.25	21.8	22.1	16.1	16.2	17.8
